system: HCT116^MTAP Deletion cells; assay: Anti-proliferation assay on cells (Cell-Titer Glo, 10 days); assay type: cell-based; details: 240 h, HCT116^MTAP Deletion cells, 10 days incubation, CTG readout; read-out: HCT116^MTAP Deletion GI50
Description: HCT116^MTAP Deletion cells were from Pharmaron (China); HCT116 cells were from ATCC; McCoy's 5A medium was purchased from Invitrogen (USA); penicillin-streptomycin and fetal bovine serum were purchased from Gibco (USA); a 384-well plate was purchased from PerkinElmer (USA); and Cell-Titer Glo reagent was purchased from Promega (USA).
Compound dissolution: All the compounds were dissolved in dimethyl sulfoxide (DMSO) and then stored. The compounds were stored at room temperature in a dry condition for 3 months for short term storage or at -20 °C for long term storage.
Cell culture and passaging
The cells were cultured strictly in accordance with ATCC requirements. The cell culture medium (McCoy's 5A medium + 10% fetal bovine serum + 1% penicillin + streptomycin) was transferred to a 15 mL centrifuge tube and centrifuged at 1000 rpm for 5 min. The supernatant was removed. The cells were resuspended with complete culture medium, inoculated into a culture dish at the required density, and cultured in an incubator at 37 °C, 95% humid air, and 5% carbon dioxide. The culture medium was replenished or the cells were passaged every 2-3 days depending on the cell growth condition.
Cell proliferation activity assay
When the confluency of cells in the culture dish reached about 90%, the cells were washed twice with PBS, and then treated with trypsin to become single cells. The cells were counted, and 40µl of the cells was inoculated into each well of a 384-well plate (50 cells/well). The plate was equilibrated at 37 °C and 5% carbon dioxide for 10 to 15 minutes. The compounds were injected into the 384-well plate using Echo550, and positive control and negative control (0.1% DMSO) were set up. Each compound was subjected to a 3-fold dilution, resulting in 10 concentration gradients, in duplicate, and the content of DMSO was 0.1%. The 384-well plate was incubated in a cell culture incubator for 10 days.
Then, 40 µl of cell proliferation assay reagent (CTG) was added to the 384-well plate, and the plate was shaken to mix well. Then, the 384-well plate was incubated at 37 °C and 5% carbon dioxide in the dark for 30 minutes. The data were read using the Envision multifunctional microplate reader. […] According to the different drug concentrations and their corresponding inhibition rates, the GI50 curve was drawn using GraphPad 8.0 software. The data were analyzed, and the final IC50 value was obtained.

Row | Structure (SMILES) | GI50 [µM]
1 | CCC(C)N(Cc1ncc(C(F)(F)F)cn1)C(=O)C(=O)Nc1cnc(N)c(C)c1 (stereo not shown) [Example 82] | 0.1 to 1
2 | CCC(C)N(Cc1cc(C)n(C)n1)C(=O)C(=O)Nc1cnc(N)c(C)c1 (stereo not shown) [Example 75] | 0.1 to 1
3 | Cn1ncc2c(NC(=O)C(=O)N(Cc3ccc(C(F)(F)F)cn3)Cc3ccnc4[nH]ccc34)cnc(N)c21 [Example 50] | < 0.01
4 | Cc1cc(NC(=O)C(=O)N(Cc2ccc(C(F)(F)F)cn2)C2CCCc3cn[nH]c32)cnc1N (stereo not shown) [Example 60] | 0.1 to 1
5 | CCC(C)N(Cc1ccc(OC(C)C)cn1)C(=O)C(=O)Nc1cnc(N)c(C)c1 (stereo not shown) [Example 80] | 0.01 to 0.1
6 | CCC(C)N(Cc1ccc(S(F)(F)(F)(F)F)cc1)C(=O)C(=O)Nc1cnc(N)c(C)c1 (stereo not shown) [Example 69] | 0.1 to 1
7 | CN(Cc1ccc2sc(C3CCOCC3)nc2c1)C(=O)C(=O)Nc1cnc(N)c2c1COC2 [Example 67] | 1 to 10
8 | Cc1cc(NC(=O)C(=O)N(Cc2ccc(C(F)(F)F)cn2)CC2CC(F)(F)C2)cnc1N [Example 70] | 0.1 to 1
9 | CCN(C(=O)C(=O)Nc1cnc(N)c2c1cnn2C)C1COCc2cc(C(F)(F)F)ccc21 (stereo not shown) [Example 101] | < 0.01
10 | CC1OCc2c(NC(=O)C(=O)N(Cc3ccc(C(F)(F)F)cn3)CC3CC3)cnc(N)c21 (stereo not shown) [Example 79] | 0.1 to 1
11 | Cn1ncc2c(NC(=O)C(=O)N(CC3CC3)C3COCc4cc(C(F)(F)F)ccc43)cnc(N)c21 (stereo not shown) [Example 102] | < 0.01
12 | CCC(C)N(Cc1nc(C)cs1)C(=O)C(=O)Nc1cnc(N)c(C)c1 (stereo not shown) [Example 76] | 0.1 to 1
13 | C[C@H](C1CC1)N(Cc1ccc(C(F)(F)F)cn1)C(=O)C(=O)Nc1cnc(N)c2c1cnn2C [Example 51] | 0.01 to 0.1
14 | CCC(C)N(Cc1ccc(C(F)(F)F)cn1)C(=O)C(=O)Nc1cnc(N)c2c1COC2 (stereo not shown) [Example 54] | 0.01 to 0.1

The next lines start with the values.

Row | GI50 [µM] | Structure (SMILES)
15 | 0.01 to 0.1 | CCC(C)N(C(=O)C(=O)Nc1cnc(N)c2c1cnn2C)C1COCc2cc(C(F)(F)F)ccc21 (stereo not shown) [Example 131]
16 | 0.01 to 0.1 | CN1CCN(c2ccc3c(c2)COCC3N(C)C(=O)C(=O)Nc2cnc(N)c3c2cnn3C)CC1 (stereo not shown) [Example 149]
17 | < 0.01 | CCN(C(=O)C(=O)Nc1cnc(N)c2c1cnn2C)C1COc2cc(C(F)(F)F)ccc21 (stereo not shown) [Example 121]
18 | 0.01 to 0.1 | CC#Cc1ccc2c(c1)OCC2N(C)C(=O)C(=O)Nc1cnc(N)c2c1cnn2C (stereo not shown) [Example 240]
19 | 1 to 10 | CN(C(=O)C(=O)Nc1cnc(N)c2c1cnn2C)C1CCOCC1 [Example 120]
20 | 0.01 to 0.1 | CN(C(=O)C(=O)Nc1cnc(N)c2c1cnn2C)C1COCc2cc(C3(F)CNC3)ccc21 (stereo not shown) [Example 203]
21 | 0.01 to 0.1 | CN(C(=O)C(=O)Nc1cnc(N)c2c1cnn2C)C1COc2cc(C(F)(F)F)cc(F)c21 (stereo not shown) [Example 176]
22 | 0.01 to 0.1 | CN(C(=O)C(=O)Nc1cnc(N)c2c1cnn2C)C1CCOc2cc(C(F)(F)F)ccc21 (stereo not shown) [Example 127]
23 | < 0.01 | CN(C(=O)C(=O)Nc1cnc(N)c2c1cnn2C)C1COCc2cc(-c3ccccc3)ccc21 (stereo not shown) [Example 226]
24 | < 0.01 | CC(C)CN(C(=O)C(=O)Nc1cnc(N)c2c1cnn2C)C1COCc2cc(C(F)(F)F)ccc21 (stereo not shown) [Example 103]
25 | 1 to 10 | Cn1ncc2c(NC(=O)C(=O)NC3COCc4cc(C(F)(F)F)ccc43)cnc(N)c21 (stereo not shown) [Example 119]
26 | 0.01 to 0.1 | CN(C(=O)C(=O)Nc1cnc(N)c2c1cnn2C)C1CCc2cc(C(F)(F)F)ccc21 (stereo not shown) [Example 136]
27 | < 0.01 | CN(C(=O)C(=O)Nc1cnc(N)c2c1cnn2C)C1COCc2cc(OC(F)(F)F)ccc21 (stereo not shown) [Example 115]
28 | 0.01 to 0.1 | CN(C(=O)C(=O)Nc1cnc(N)c2c1cnn2C)C1COC(C)(C)c2cc(C(F)(F)F)ccc21 (stereo not shown) [Example 147]
29 | < 0.01 | Cn1ncc2c(NC(=O)C(=O)N(CC3CC3)C3COc4cc(C(F)(F)F)ccc43)cnc(N)c21 (stereo not shown) [Example 123]
30 | < 0.01 | CN(C(=O)C(=O)Nc1cnc(N)c2c1cnn2C)C1COCc2cc(-c3ccnn3C3CC3)ccc21 (stereo not shown) [Example 232]
31 | 1 to 10 | CN(C(=O)C(=O)Nc1cnc(N)c2c1cnn2C)C1CCOC1 (stereo not shown) [Example 126]
32 | < 0.01 | CN(C(=O)C(=O)Nc1cnc(N)c2c1cnn2C)C1COc2cc(-c3ccc(C4CC4)nc3)ccc21 (stereo not shown) [Example 239]
33 | 0.01 to 0.1 | CN(C(=O)C(=O)Nc1cnc(N)c2c1cnn2C)C1COCc2cc(C3=CCCOC3)ccc21 (stereo not shown) [Example 108]
34 | < 0.01 | CN(C(=O)C(=O)Nc1cnc(N)c2c1cnn2C)C1COc2cc(-c3ccccc3F)ccc21 (stereo not shown) [Example 214]
35 | < 0.01 | CN(C(=O)C(=O)Nc1cnc(N)c2c1cnn2C)C1COCc2nc(-c3ccnn3C3CC3)ccc21 (stereo not shown) [Example 220]
36 | < 0.01 | Cc1ncc(-c2ccc3c(c2)COCC3N(C)C(=O)C(=O)Nc2cnc(N)c3c2cnn3C)o1 (stereo not shown) [Example 207]
37 | 1 to 10 | CN(C(=O)C(=O)Nc1cnc(N)c2c1cnn2C)C1CCCN(c2ccccc2)C1 (stereo not shown) [Example 133]
38 | < 0.01 | CCC(C)N(Cc1ccc(C2=CCN(C(=O)OC)CC2)cn1)C(=O)C(=O)Nc1cnc(N)c(C)c1 (stereo not shown) [Example 125-P1]

same assay, conditions: HCT116^MTAP Deletion cells, 10 days incubation, CTG readout; read-out: HCT116^MTAP Deletion GI50

Row | Structure (SMILES) | GI50 [µM]
39 | CCC(C)N(Cc1cnn(C)c1)C(=O)C(=O)Nc1cnc(N)c(C)c1 (stereo not shown) [Example 73] | > 10
40 | Cc1cc(NC(=O)C(=O)N(Cc2ccc(C(F)(F)F)cn2)[C@H](C)C2CC2)cnc1N [Example 36] | 0.01 to 0.1
41 | Cc1cc(NC(=O)C(=O)N(C)Cc2ccc(C(F)(F)F)cn2)cnc1N [Example 3] | 1 to 10
42 | Cc1cc(NC(=O)C(=O)N(Cc2ccc(C(F)(F)F)cn2)CC2CCCC2)cnc1N [Example 17] | 0.01 to 0.1
43 | CCC(C)N(Cc1ccc(C(F)(F)F)cn1)C(=O)C(=O)Nc1cnc(N)c(C)c1 (single isomer, unassigned) [Example 45-P2] | 0.01 to 0.1
44 | Nc1ncc(NC(=O)C(=O)N(Cc2ccc(C(F)(F)F)cn2)CC2CC2)c2c1COC2 [Example 40] | 0.1 to 1
45 | Cc1cc(NC(=O)C(=O)N(Cc2ccc(C(F)(F)F)cn2)C2CCCOC2)cnc1N (single isomer, unassigned) [Example 14-P1] | 0.1 to 1
46 | C[C@H](c1ncccn1)N(Cc1ccc(C(F)(F)F)cn1)C(=O)C(=O)Nc1cnc(N)c2ccncc12 [Example 32] | 0.1 to 1
47 | CCC(C)N(Cc1ccc(C(F)(F)F)cn1)C(=O)C(=O)Nc1cnc(OC)c(C(N)=O)c1 (single isomer, unassigned) [Example 5-P1] | 0.01 to 0.1
48 | C[C@H](c1ncccn1)N(Cc1ccc(C(F)(F)F)cn1)C(=O)C(=O)Nc1cnc(N)c(F)c1 [Example 22] | 1 to 10
49 | CN(C(=O)C(=O)Nc1cnc(N)c2c1cnn2C)C1COCc2cc(C(F)(F)F)ccc21 (stereo not shown) [Example 48] | < 0.01
50 | C[C@H](c1ncccn1)N(Cc1ccc(C(F)(F)F)cn1)C(=O)C(=O)Nc1cnc(N)c2c1cnn2C [Example 30] | 0.01 to 0.1
51 | Cc1cc(NC(=O)C(=O)N(Cc2ccc(C(F)(F)F)cn2)C(C)c2cscn2)cnc1N (single isomer, unassigned) [Example 19-P1] | 0.01 to 0.1

Second part, the compound after the results:

Row | GI50 [µM] | Structure (SMILES)
52 | < 0.01 | CN(C(=O)C(=O)Nc1cnc(N)c2c1cnn2C)C1COc2cc(Br)ccc21 (racemic) [compound 180]
53 | < 0.01 | Cc1ncc(-c2ccc3c(n2)COCC3N(C)C(=O)C(=O)Nc2cnc(N)c3c2cnn3C)s1 (racemic) [compound 209]
54 | < 0.01 | CN(C(=O)C(=O)Nc1cnc(N)c2c1cnn2C)C1COc2cc(-c3ccnn3C3CC3)ccc21 (stereo not shown) [Example 212]
55 | 0.01 to 0.1 | Cc1ccc2c(c1)OCC2N(C)C(=O)C(=O)Nc1cnc(N)c2c1cnn2C (stereo not shown) [Example 233]
56 | < 0.01 | CN(C(=O)C(=O)Nc1cnc(N)c2c1cnn2C)C1COCc2cc(C3=CCC(F)(F)CC3)ccc21 (racemic) [compound 174]
57 | < 0.01 | CN(C(=O)C(=O)Nc1cnc(N)c2c1cnn2C)C1COCc2c1ccc(Cl)c2Cl (racemic) [compound 168]
58 | 0.01 to 0.1 | CN(C(=O)C(=O)Nc1cnc(N)c2c1cnn2C)C1COc2cc(F)c(F)cc21 (racemic) [compound 172]
59 | < 0.01 | CN(C(=O)C(=O)Nc1cnc(N)c2c1cnn2C)C1COCc2cc(-c3ccnn3C)ccc21 (stereo not shown) [Example 137]
60 | < 0.01 | CC1OCC(N(C)C(=O)C(=O)Nc2cnc(N)c3c2cnn3C)c2ccc(C(F)(F)F)cc21 (stereo not shown) [compound 187]
61 | 0.1 to 1 | CN(C(=O)C(=O)Nc1cnc(N)c2c1cnn2C)C1COc2cc(C3=CCOCC3)ccc21 (single isomer, unassigned) [Example 153-P2]
62 | < 0.01 | CN(C(=O)C(=O)Nc1cnc(N)c2c1cnn2C)C1COc2cc(Cl)c(Cl)cc21 (racemic) [compound 186]
63 | 0.1 to 1 | Cc1cc(NC(=O)C(=O)N(C)C2COCc3cc(C4=CCOCC4)ccc32)cnc1N (racemic) [compound 162]
64 | < 0.01 | CN(C(=O)C(=O)Nc1cnc(N)c2c1cnn2C)C1COc2cc(-c3cnn(C(F)(F)F)c3)ccc21 (stereo not shown) [Example 213]
